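Compound exposure: 48 hours, 5 concentrations, 96-well plates. GI50 is the concentration that inhibits growth by half.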 Calls of active or inactive are those of the source. No stated cut-off is given here; in the data, active = GI50 up to about 1.1 µM and inactive = higher.
Experiments:
Test in all cases: NCI-60 cell line screen, 48 h
U-251 = tested on: U-251
A498 = tested on: A498
OVCAR-4 = tested on: OVCAR-4
EKVX = tested on: EKVX
NCI-H522 = tested on: NCI-H522
RXF 631 = tested on: RXF 631
NCI-H23 = tested on: NCI-H23
HL-60 = tested on: HL-60
OVCAR-8 = tested on: OVCAR-8
SN12C = tested on: SN12C
UO-31 = tested on: UO-31
SK-MEL-28 = tested on: SK-MEL-28
NCI-H460 = tested on: NCI-H460
HCT-15 = tested on: HCT-15
SF-539 = tested on: SF-539
DMS-273 = tested on: DMS-273
XF498 = tested on: XF498
SNB-19 = tested on: SNB-19
SNB-78 = tested on: SNB-78
TK-10 = tested on: TK-10
OVCAR-3 = tested on: OVCAR-3
COLO 205 = tested on: COLO 205
MOLT-4 = tested on: MOLT-4
LXFL 529 = tested on: LXFL 529
RPMI-8226 = tested on: RPMI-8226
A549 = tested on: A549
HOP-18 = tested on: HOP-18
SK-MEL-2 = tested on: SK-MEL-2
CAKI-1 = tested on: CAKI-1
UACC-62 = tested on: UACC-62
CCRF-CEM = tested on: CCRF-CEM
SW-620 = tested on: SW-620
SK-OV-3 = tested on: SK-OV-3
HOP-62 = tested on: HOP-62
SNB-75 = tested on: SNB-75
OVCAR-5 = tested on: OVCAR-5
RXF 393 = tested on: RXF 393
KM12 = tested on: KM12
HT-29 = tested on: HT-29
HCC 2998 = tested on: HCC 2998
HOP-92 = tested on: HOP-92
786-0 = tested on: 786-0
SR = tested on: SR
IGROV-1 = tested on: IGROV-1
Malme-3M = tested on: Malme-3M
UACC-257 = tested on: UACC-257
DLD-1 = tested on: DLD-1
ACHN = tested on: ACHN
HCT-116 = tested on: HCT-116
K562 = tested on: K562
SK-MEL-5 = tested on: SK-MEL-5
SF-295 = tested on: SF-295
M14 = tested on: M14
KM-20L2 = tested on: KM-20L2
SF-268 = tested on: SF-268
DMS-114 = tested on: DMS-114
M19-MEL = tested on: M19-MEL
NCI-H226 = tested on: NCI-H226
LOX IMVI = tested on: LOX IMVI

Measured: GI50

Cc1nc(N)nc(CCC(=O)Nc2cccc(C(F)(F)F)c2)c1-c1ccc(Cl)cc1
> 100 µM: HCT-15
inactive: U-251 > 100 µM | A498 > 100 µM | OVCAR-4 > 100 µM | EKVX > 100 µM | NCI-H522 > 100 µM | RXF 631 > 100 µM | NCI-H23 > 100 µM | HL-60 > 100 µM | OVCAR-8 > 100 µM | SN12C > 100 µM | UO-31 > 100 µM | SK-MEL-28 > 100 µM | NCI-H460 > 100 µM | SF-539 > 100 µM | DMS-273 > 100 µM | XF498 > 100 µM | SNB-19 > 100 µM | SNB-78 > 100 µM | TK-10 > 100 µM | OVCAR-3 > 100 µM | COLO 205 > 100 µM | MOLT-4 > 100 µM | LXFL 529 > 100 µM | RPMI-8226 > 100 µM | A549 > 100 µM | HOP-18 > 100 µM | SK-MEL-2 > 100 µM | CAKI-1 > 100 µM | UACC-62 > 100 µM | CCRF-CEM > 100 µM | SW-620 > 100 µM | SK-OV-3 > 100 µM | HOP-62 > 100 µM | SNB-75 > 100 µM | OVCAR-5 > 100 µM | RXF 393 > 100 µM | KM12 > 100 µM | HT-29 > 100 µM | HCC 2998 > 100 µM | HOP-92 > 100 µM | 786-0 > 100 µM | SR 21.6 µM | IGROV-1 > 100 µM | Malme-3M > 100 µM | UACC-257 > 100 µM | DLD-1 > 100 µM | ACHN > 100 µM | HCT-116 > 100 µM | K562 > 100 µM | SK-MEL-5 > 100 µM | SF-295 > 100 µM | M14 > 100 µM | KM-20L2 > 100 µM | SF-268 > 100 µM | DMS-114 > 100 µM | M19-MEL > 100 µM | NCI-H226 > 100 µM

O=C(CCCCCCCCCCc1ccccc1)C1=C(O)CC(O)CC1=O (centres undefined)
inactive: U-251 55.1 µM | OVCAR-4 74.3 µM | EKVX 81.1 µM | NCI-H522 33.4 µM | RXF 631 56.8 µM | NCI-H23 56.4 µM | HL-60 20.7 µM | OVCAR-8 49.7 µM | SN12C 96.2 µM | UO-31 60.5 µM | SK-MEL-28 72.4 µM | NCI-H460 46.3 µM | SF-539 86.7 µM | DMS-273 48 µM | XF498 > 100 µM | SNB-19 88.5 µM | SNB-78 > 100 µM | TK-10 64.6 µM | OVCAR-3 52.6 µM | COLO 205 45.2 µM | MOLT-4 40.5 µM | LOX IMVI 48.2 µM | LXFL 529 53.3 µM | RPMI-8226 34.8 µM | A549 42.1 µM | HOP-18 > 100 µM | SK-MEL-2 25.4 µM | CAKI-1 94.4 µM | UACC-62 59.8 µM | CCRF-CEM 45.1 µM | SW-620 76.9 µM | SK-OV-3 > 100 µM | HOP-62 > 100 µM | SNB-75 > 100 µM | OVCAR-5 39.5 µM | RXF 393 > 100 µM | KM12 38.4 µM | HT-29 47.6 µM | HCC 2998 34.9 µM | HOP-92 33.3 µM | 786-0 58.1 µM | SR 40.9 µM | IGROV-1 72.4 µM | UACC-257 63.1 µM | DLD-1 80.4 µM | ACHN 58.5 µM | HCT-116 43.3 µM | K562 30.5 µM | SK-MEL-5 48 µM | SF-295 56.8 µM | M14 59.8 µM | KM-20L2 55 µM | SF-268 > 100 µM | DMS-114 35.5 µM | M19-MEL 53.3 µM | NCI-H226 24 µM
